Laboratory results taken from US8034799B2, “Preventing and/or treating cardiovascular disease and/or associated heart failure” (Philera New Zealand Limited, priority 2002, dated 2011).
Read-outs that look alike come from different tables or passages of the source.

Columns and labels:
diabetic Wistar rats = settings: six months of treatment
[1] = tested on: diabetic (STZ) and nondiabetic male Wistar rats; settings: for Renal clearance Cu / Renal clearance Fe / Serum Cu / Serum Fe: trientine; for Renal clearance Cu / Renal clearance Fe: final hour of experiment; for Serum Cu / Serum Fe: terminal blood sample
Description: (§1) Following surgery and a 20 min stabilization period, the experimental protocol was started. Trientine was administered intravenously over 60 s in hourly doses of increasing concentration (0.1, 1.0, 10 and 100 mg·kg^−1 in 75 μl saline followed by 125 μl saline flush). Control animals received an equivalent volume of saline. Urine was collected in 15 min aliquots throughout the experiment in pre-weighed polyethylene epindorph tubes. At the end of the experiment a terminal blood sample was taken by cardiac puncture and the separated serum stored at −80° C. until future analysis. Hearts were removed through a rapid mid-sternal thoracotomy and processed as described below.
Serum: Terminal blood samples were centrifuged and serum treated and stored as per urine until analysis. From the trace metal content of serum from the terminal blood sample and urine collected over the final hour of the experiment, renal clearance was calculated using the following equation: renal clearance of trace metal=(a) the concentration of metal in urine (μg·μl^−1) times (b) the rate of urine flow (μl·min^−1), divided by (c) the concentration of metal in serum (μg·μl^−1)

[2] = tested on: diabetic (STZ) and nondiabetic male Wistar rats
Source text: Nondiabetic animals received an equivalent volume of saline.
All animals were fasted overnight prior to surgery but continued to have ad libitum access to deionized water. […] The femoral artery and vein were cannulated with a solid-state blood pressure transducer (Mikrotip™ 1.4F, Millar Instruments, Texas, USA) and a saline filled PE 50 catheter respectively. The ureters were exposed via a midline abdominal incision, cannulated using polyethylene catheters (external diameter 0.9 mm, internal diameter 0.5 mm) and the wound sutured closed. The trachea was cannulated and the animal ventilated at 70-80 breaths·min^−1 with air supplemented with O2 (Pressure Controlled Ventilator, Kent Scientific, Connecticut, USA). The respiratory rate and end-tidal pressure (10-15 cm H2O) were adjusted to maintain end-tidal CO2 at 35-40 mm Hg (SC-300 CO2 Monitor, Pryon Corporation, Wisconsin, USA). Body temperature was maintained at 37° C. throughout surgery and the experiment by a heating pad. Estimated fluid loss was replaced with intravenous administration of 154 mmol·l^−1 NaCl solution at a rate of 5 ml·kg^−1·h^−1.
as §1
Instrumentation: A Perkin Elmer (PE) Model 3100 Atomic Absorption Spectrophotometer equipped with a PE HGA-600 Graphite Furnace and PE AS-60 Furnace Autosampler was used for Cu and Fe determinations in urine. Deuterium background correction was employed. A Cu or Fe hollow-cathode lamp (Perkin Elmer Corporation) was used and operated at either 10 W (Cu) or 15 W (Fe). The 324.8 nm atomic line was used for Cu and the 248.3 nm atomic line for Fe. The slit width for both Cu and Fe was 0.7 nm. Pyrolytically coated graphite tubes were used for all analyses. The injection volume was 20 μL. A typical graphite furnace temperature program is shown below.
Urine: Urine was collected in pre-weighed 1.5 ml micro test tubes (eppendorf). After reweighing, the urine specimens were centrifuged and the supernatant diluted 25:1 with 0.02 M 69% Aristar grade HNO3. The sample was stored at 4° C. prior to GF-AAS analysis. If it was necessary to store a sample for a period in excess of 2 weeks, it was frozen and kept at −20° C.
Statistical analyses were as follows: All values are expressed as mean±SEM and P values <0.05 were considered statistically significant. Student's unpaired t-test was initially used to test for weight and glucose differences between the diabetic and control groups.

[3] = tested on: STZ diabetic and normal Wistar rats
Description: On the last day of the experiment, animals were anesthetized (5% halothane and 2 L·min^−1 O2), and heparin (500 IU·kg^−1) (Weddel Pharmaceutical Ltd., London) administered intravenously via tail vein. […] Hearts were then placed in the isolated perfused working heart apparatus.
The aortic root of the heart was immediately ligated to the aortic cannula of the perfusion apparatus. Retrograde (Langendorff) perfusion at a hydrostatic pressure of 100 cm H2O and at 37° C. was established and continued for 5 min while cannulation of the left atrium via the pulmonary vein was completed. The non-working (Langendorff) preparation was then converted to the working heart model by switching the supply of perfusate buffer from the aorta to the left atrium at a filling pressure of 10 cm H2O. […] The perfusion solution was Krebs-Henseleit bicarbonate buffer (mM: KCl 4.7, CaCl2 2.3, KH2PO4 1.2, MgSO4 1.2, NaCl 118, and NaHCO3 25), pH 7.4 containing 11 mM glucose and it was continuously gassed with 95% O2:5% CO2. The buffer was also continuously filtered in-line (initial 8 μm, following 0.4 μm cellulose acetate filters; Sartorius, Germany). The temperature of the entire perfusion apparatus was maintained by water jackets and buffer temperature was continuously monitored and adjusted to maintain hearts at 37° C. throughout perfusion.
A modified 24 g plastic intravenous cannula (Becton Dickson, Utah, USA) was inserted into the left ventricle via the apex of the heart using the normal introducer-needle. This cannula was subsequently attached to a SP844 piezo-electric pressure transducer (AD Instruments) to continuously monitor left ventricular pressure. Aortic pressure was continuously monitored through a side arm of the aortic cannula with a pressure transducer (Statham Model P23XL, Gould Inc., CA, USA). The heart was paced (Digitimer Ltd, Heredfordshire, England) at a rate of 300 bpm by means of electrodes attached to the aortic and pulmonary vein cannulae using supra-threshold voltages with pulses of 5-ms duration from the square wave generator.

[4] = diabetic and nondiabetic animals

NCCNCCNCCN [trientine, N,N′-Bis(2-aminoethyl)-1,2-ethanedi-amine]
protection of hearts from development of diabetic damage (cardiomyopathy) as judged by histology (diabetic Wistar rats): appears to protect
serum content or renal clearance of iron, effect of drug [1, 4]: no effect
serum copper content, drug versus saline [1, 4]: no significant difference
renal clearance of copper, drug versus saline ([1]; diabetic animals): significant increase
Renal clearance Cu ([1]; diabetic, n = 6): *28.5 ± 4.8 μl · min^−1
Renal clearance Fe ([1]; diabetic, n = 6): 0.25 ± 0.07 µL/min
Serum Cu ([1]; diabetic, n = 6): 7.56 ± 0.06 μg · μl^−1 × 10^−4
Serum Fe ([1]; diabetic, n = 6): 35.7 ± 7.98 μg · μl^−1 × 10^−4
increase in renal clearance of copper, drug versus saline ([1]; nondiabetic animals (P=0.056)): not statistically significant
Renal clearance Cu ([1]; nondiabetic, n = 4): 19.9 ± 6.4 µL/min
Renal clearance Fe ([1]; nondiabetic, n = 4): 0.46 ± 0.22 µL/min
Serum Cu ([1]; nondiabetic, n = 4): 7.11 ± 0.41 μg · μl^−1 × 10^−4
Serum Fe ([1]; nondiabetic, n = 4): 33.6 ± 1.62 μg · μl^−1 × 10^−4
copper excretion versus saline, mixed linear model ([2]; all dose levels): significantly higher excretion of copper
greater iron excretion per gram of body weight in diabetic than nondiabetic animals ([2]; animals receiving trientine): not evident
total iron excretion versus saline ([2]; both diabetic and nondiabetic animals): not different
total copper excreted over the entire duration of the experiment versus saline controls ([2]; both nondiabetic and diabetic animals): significantly increased
increase of urine excretion versus equivalent volume of saline ([2]; diabetic animals, 100 mg·kg^−1 i.v.): not seen
iron excretion (μg), saline versus drug ([2]; diabetic animals, at most doses): greater in animals administered saline than in those administered drug
diabetes x drug interaction effect on copper excretion, mixed linear model ([2]; dose levels of 1.0 mg·kg^−1 and above): significant
total copper per gram of body weight, diabetic versus nondiabetic animals receiving drug ([2]; entire experiment): excreted more total copper per gram of body weight
copper excretion per gram of body weight, diabetic versus nondiabetic animals ([2]; in response to each dose of drug): significantly greater copper excretion per gram of body weight
greater total iron excretion per gram of body weight in diabetic than nondiabetic animals ([2]; in response to trientine): not seen
urine excretion versus equivalent volume of saline ([2]; nondiabetic animals, 100 mg·kg^−1 i.v.): increased urine excretion
Percentage functioning at each afterload ([3]; STZ/D7 (diabetic, trientine weeks 7-13), afterload 55.9 mmHg): 100%
Number surviving (aortic flow >0 mls/min) ([3]; STZ/D7 (diabetic, trientine weeks 7-13, N 8), afterload 55.9 mmHg): 8
Number surviving (aortic flow >0 mls/min) ([3]; STZ/D7, afterload 61.8 mmHg): 8
Percentage functioning at each afterload ([3]; STZ/D7, afterload 61.8 mmHg): 100%
Number surviving (aortic flow >0 mls/min) ([3]; STZ/D7, afterload 67.7 mmHg): 8
Percentage functioning at each afterload ([3]; STZ/D7, afterload 67.7 mmHg): 100%
Number surviving (aortic flow >0 mls/min) ([3]; STZ/D7, afterload 71.4 mmHg): 8
Percentage functioning at each afterload ([3]; STZ/D7, afterload 71.4 mmHg): 100%
Number surviving (aortic flow >0 mls/min) ([3]; STZ/D7, afterload 77.2 mmHg): 8
Percentage functioning at each afterload ([3]; STZ/D7, afterload 77.2 mmHg): 100%
Number surviving (aortic flow >0 mls/min) ([3]; STZ/D7, afterload 83.1 mmHg): 8
Percentage functioning at each afterload ([3]; STZ/D7, afterload 83.1 mmHg): 100%
Number surviving (aortic flow >0 mls/min) ([3]; STZ/D7, afterload 88.3 mmHg): 7
Percentage functioning at each afterload ([3]; STZ/D7, afterload 88.3 mmHg): 88%
Number surviving (aortic flow >0 mls/min) ([3]; STZ/D7, afterload 94.9 mmHg): 6
Percentage functioning at each afterload ([3]; STZ/D7, afterload 94.9 mmHg): 75%
Number surviving (aortic flow >0 mls/min) ([3]; STZ/D7, afterload 100.8 mmHg): 5
Percentage functioning at each afterload ([3]; STZ/D7, afterload 100.8 mmHg): 63%
Number surviving (aortic flow >0 mls/min) ([3]; STZ/D7, afterload 106.7 mmHg): 1
Percentage functioning at each afterload ([3]; STZ/D7, afterload 106.7 mmHg): 13%
Percentage functioning at each afterload ([3]; Sham/D7 (non-diabetic, trientine weeks 7-13), afterload 55.9 mmHg): 100%
Number surviving (aortic flow >0 mls/min) ([3]; Sham/D7 (non-diabetic, trientine weeks 7-13, N 11), afterload 55.9 mmHg): 11
Number surviving (aortic flow >0 mls/min) ([3]; Sham/D7, afterload 61.8 mmHg): 11
Percentage functioning at each afterload ([3]; Sham/D7, afterload 61.8 mmHg): 100%
Number surviving (aortic flow >0 mls/min) ([3]; Sham/D7, afterload 67.7 mmHg): 11
Percentage functioning at each afterload ([3]; Sham/D7, afterload 67.7 mmHg): 100%
Number surviving (aortic flow >0 mls/min) ([3]; Sham/D7, afterload 71.4 mmHg): 11
Percentage functioning at each afterload ([3]; Sham/D7, afterload 71.4 mmHg): 100%
Number surviving (aortic flow >0 mls/min) ([3]; Sham/D7, afterload 77.2 mmHg): 11
Percentage functioning at each afterload ([3]; Sham/D7, afterload 77.2 mmHg): 100%
Number surviving (aortic flow >0 mls/min) ([3]; Sham/D7, afterload 83.1 mmHg): 11
Percentage functioning at each afterload ([3]; Sham/D7, afterload 83.1 mmHg): 100%
Number surviving (aortic flow >0 mls/min) ([3]; Sham/D7, afterload 88.3 mmHg): 11
Percentage functioning at each afterload ([3]; Sham/D7, afterload 88.3 mmHg): 100%
Number surviving (aortic flow >0 mls/min) ([3]; Sham/D7, afterload 94.9 mmHg): 11
Percentage functioning at each afterload ([3]; Sham/D7, afterload 94.9 mmHg): 100%
Number surviving (aortic flow >0 mls/min) ([3]; Sham/D7, afterload 100.8 mmHg): 11
Percentage functioning at each afterload ([3]; Sham/D7, afterload 100.8 mmHg): 100%
Number surviving (aortic flow >0 mls/min) ([3]; Sham/D7, afterload 106.7 mmHg): 9
Percentage functioning at each afterload ([3]; Sham/D7, afterload 106.7 mmHg): 82%
cardiac output ([3]; drug treated diabetic group, pre-load increased (5-20 cm H2O), after-load constant): restored to Sham values
aortic and absolute coronary flows ([3]; drug treated diabetic group, pre-load increased, after-load constant): improved
indicators for ventricular contraction and relaxation (+dP/dt, −dP/dt) ([3]; drug treated versus untreated diabetic group): significantly improved
heart's ability to function at higher after-loads ([3]; drug treated versus untreated diabetic group, constant pre-load): greatly improved
adverse effects on cardiac performance ([3]; drug treatment of normal animals (Sham/D7)): no adverse effects
cardiac function overall ([3]; oral trientine for 7 weeks, Wistar rats with established diabetes of 6 weeks duration): global improvement in cardiac function
trientine treated diabetic hearts still functioning ([3]; when 50% of the untreated diabetic hearts had failed): about 90%
